In this test the target is T1, Integrin alpha-L (Mus musculus, UniProt P24063).
T1 sequence (P24063 whole entry): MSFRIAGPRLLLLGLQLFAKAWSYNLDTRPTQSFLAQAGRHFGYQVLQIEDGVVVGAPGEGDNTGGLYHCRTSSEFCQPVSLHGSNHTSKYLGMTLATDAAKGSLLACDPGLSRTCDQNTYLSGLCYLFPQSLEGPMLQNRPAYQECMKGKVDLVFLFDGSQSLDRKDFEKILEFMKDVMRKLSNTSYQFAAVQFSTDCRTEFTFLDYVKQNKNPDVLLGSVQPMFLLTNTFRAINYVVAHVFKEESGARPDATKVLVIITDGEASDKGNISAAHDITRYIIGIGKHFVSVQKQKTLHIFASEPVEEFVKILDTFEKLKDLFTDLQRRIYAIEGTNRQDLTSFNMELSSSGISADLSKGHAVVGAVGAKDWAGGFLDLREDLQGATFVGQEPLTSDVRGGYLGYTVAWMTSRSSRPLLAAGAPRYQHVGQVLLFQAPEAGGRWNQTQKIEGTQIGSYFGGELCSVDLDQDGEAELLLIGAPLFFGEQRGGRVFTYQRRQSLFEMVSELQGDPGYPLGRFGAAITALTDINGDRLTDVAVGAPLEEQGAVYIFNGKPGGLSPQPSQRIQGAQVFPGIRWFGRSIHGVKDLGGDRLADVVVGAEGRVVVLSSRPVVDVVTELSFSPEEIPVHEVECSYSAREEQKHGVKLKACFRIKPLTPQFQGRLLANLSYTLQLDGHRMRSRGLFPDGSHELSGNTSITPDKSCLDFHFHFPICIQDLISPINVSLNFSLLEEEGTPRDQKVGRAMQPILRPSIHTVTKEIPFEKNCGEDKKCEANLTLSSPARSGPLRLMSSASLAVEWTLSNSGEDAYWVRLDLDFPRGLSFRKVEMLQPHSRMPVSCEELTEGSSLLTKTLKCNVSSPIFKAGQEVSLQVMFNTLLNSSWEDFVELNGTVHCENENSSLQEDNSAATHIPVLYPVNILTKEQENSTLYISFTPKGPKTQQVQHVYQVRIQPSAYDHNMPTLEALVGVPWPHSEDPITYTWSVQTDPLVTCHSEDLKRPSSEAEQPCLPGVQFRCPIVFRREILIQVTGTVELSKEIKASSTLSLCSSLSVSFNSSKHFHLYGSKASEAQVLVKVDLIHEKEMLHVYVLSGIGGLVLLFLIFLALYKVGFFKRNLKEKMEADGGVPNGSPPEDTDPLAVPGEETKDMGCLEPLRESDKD
In words: modulators of CD8 T cell-vesicle binding, dose response, powder samples, mouse 2C CD8+ cells (AID 504565).

Data on one compound can be found in BindingDB's records for doi:10.7270/Q2XW4H88 (Nmmlsc, 2011).

As to `O=C(c1ccc(-n2c(O)c3c(c2O)CC(Cl)=CC3)cc1)N1CCCCC1` [5-chloro-2-[4-[oxo(1-piperidinyl)methyl]phenyl]-3a,4,7,7a-tetrahydroisoindole-1,3-dione], the concentration for a half-maximal effect (EC50) amounted to 9.02 µM.
